Source: US20110207807A1, “NEW USE FOR HOMOISOFLAVONE OR A SALT THEREOF” (Catholic University Industry Academy Cooperation Foundation, priority 2008, published 2011)

Experiments:
[1] = system: intracellular reactive oxygen species (ROS); assay: Intracellular ROS induced by UV radiation (DCFH-DA fluorescence microscopy); format: cell-based, human; details: HaCaT cells, 1 μg/mL, UV 100 J/m^2, compared to UV only (FIG. 1)
Method: Human keratinocyte cell line HaCaT cells (acquired from Professor N. Fusenig of the German Cancer Research Center) were inoculated on a 60-mm culture dish (5×10^5 cells; 1×10^6 cells for a 100-mm culture dish) and cultured for 24 hours in Dulbecco's modified Eagle's medium (DMEM) containing 10% fetal bovine serum (FBS).
Then, after treating with homoisoflavanone of Chemical Formula 1 (R=OCH3) at a concentration of 1 μg/mL for 1 hour, the cells were washed 3 times with phosphate buffered saline (PBS). In order to generate reactive oxygen species (ROS), the cells were irradiated with UV at 100 J/m^2 using a UV lamp (FSX 24 T12/UVB/HO, Pansol™, USA). Immediately after the UV radiation, the cells were washed again with PBS and further cultured for 4 hours in DMEM containing 1% FBS, while treating with homoisoflavanone at the same concentration. Then, after treating for 30 minutes in Hank's balanced salt solution (HBSS, BioWhittaker, Cambrex, USA) with 25 μM 2,7-dichlorofluorescein diacetate (DCFH-DA), the cells were washed 3 times with PBS.
Thereafter, the ROS induced by UV were measured using a fluorescence microscope (Carl Zeiss, USA). Test groups were subdivided as follows: non-treated group—treated with neither UV nor homoisoflavanone; test group A—treated with homoisoflavanone only; control group—treated with UV only; test group B—treated with UV and homoisoflavanone.

hairless mouse (SKH-1) = assay: Ear edema induced by phorbol 12-myristate 13-acetate in animal model; format: in vivo
Method: In order to confirm the in vitro test result on the human keratinocytes HaCaT cells in an animal model, experiment was performed as follows using hairless mouse (SKH-1). Test groups are as follows: non-treated group—treated not with phorbol 12-myristate 13-acetate but only with acetone (TPA); test group A—treated with 1 μg/10 μL homoisoflavanone or 50 μg/10 μL dexamethasone; control group (TPA)-treated with 100 μM phorbol 12-myristate 13-acetate; test group B—treated with 1 μg/10 μL homoisoflavanone or 50 μg/10 μL dexamethasone as well as 100 μM phorbol 12-myristate 13-acetate.
One hour before treating with phorbol 12-myristate 13-acetate, 1 μg/10 μL homoisoflavanone or 50 μg/10 μL dexamethasone was applied on the front and rear parts of the ear, 5 μL each. Then, 6 hour after the application of phorbol 12-myristate 13-acetate, ear thickness and weight were measured.
In order to investigate overall change in the skin tissue, hematoxylin-eosin staining was carried out.

5-LOX = 5-LOX translocation to nuclear membrane induced by PMA and A23187 in HMC-1 (Western blot); format: cell-based, human; details: HMC-1, 2 μg/mL, 50 nM PMA + 1 μM A23187, 5 hours (FIG. 7b)
Method: In order to investigate the effect of homoisoflavanone on the migration of 5-LOX from the cytoplasm toward the nuclear membrane induced by phorbol 12-myristate 13-acetate and A23187 in human mast cells, 1×10^6 HMC-1 cells were inoculated on a 100-mm culture dish and cultured in IMDM containing 10% FBS for 48 hours. Then, after treating with homoisoflavanone at 2 μg/mL, the cells were treated with 50 nM phorbol 12-myristate 13-acetate and 1 μM A23187 to induce migration of 5-LOX to the nuclear membrane, and then further cultured for 5 hours.
Then, in order to measure the migration of 5-LOX to the nuclear membrane, nuclear membrane proteins were isolated first. The cells of each test group were lysed with a buffer containing 10 mM HEPES/KOH, 0.1 mM EDTA, 10% NP-40, 10 mM KCl, 1 mM DTT, 0.5 mM PMSF and a protease inhibitor cocktail on ice for 10 minutes. After centrifugation, the supernatant (cytoplasmic proteins) was separated from the pellets (nuclear membrane proteins). The cytoplasmic proteins were kept at −80° C. and the pellets were lysed with a buffer containing 10 mM HEPES/KOH, 0.1 mM EDTA, 10% NP-40, 300 mM NaCl, 1 mM DTT, 0.5 mM PMSF and a protease inhibitor cocktail by shaking on ice for 30 minutes. Then, after centrifugation, the supernatant (nuclear proteins) was separated. […]

cPLA2 = cPLA2 phosphorylation induced by PMA and A23187 in HMC-1 (Western blot); format: cell-based, human; details: HMC-1, 2 μg/mL, 50 nM PMA + 1 μM A23187, 4 hours (FIG. 7c)
Method: 1×10^6 HMC-1 cells were inoculated on a 100-mm culture dish and cultured in IMDM containing 10% FBS for 48 hours. […] Then, Western blotting was carried out in the same manner as in Example 2-1 except for using rabbit anti-p-cytosolic phospholipase A2 (cPLA2) antibody, rabbit anti-cPLA2 antibody, rabbit anti-ERK antibody and rabbit anti-p-ERK antibody (Cell Signaling) and using anti-rabbit IgG-HRP conjugation antibody (Zymed) as secondary antibody.

HMC-1 cells [2] = assay: Degranulation induced by PMA and A23187 in HMC-1 (transmission electron microscopy); format: cell-based, human; details: HMC-1, 2 μg/mL, 50 nM PMA + 1 μM A23187, 6 hours (FIG. 8a)
Method: (§1) In order to investigate the effect of homoisoflavanone on COX-2 expression induced by phorbol 12-myristate 13-acetate and A23187 in HMC-1, 1×10^5 HMC-1 cells were inoculated on a 6-well plate and cultured in IMDM containing 10% FBS for 48 hours. Then, after treating with homoisoflavanone at 2 μg/mL for 1 hour, the cells were treated with 50 nM phorbol 12-myristate 13-acetate and 1 μM A23187 to induce COX-2 expression, and then further cultured for 6 hours. Then, the cells were fixed with 2.5% glutaraldehyde and frozen with liquid nitrogen. The cells were detached from the plate by applying heat, sliced into […], attached on grids, and observed with a transmission electron microscope (TEM).

HMC-1 cells [3] = assay: Histamine release during degranulation of HMC-1 (histamine enzyme assay kit); format: cell-based, human; details: HMC-1, 2 μg/mL, 50 nM PMA + 1 μM A23187 (FIG. 8b)
Method: as §1
In order to measure histamine released during the degranulation, the cell supernatant was collected and subjected to measurement using a histamine enzyme assay kit (Cayman, USA) according to the manufacturer's instructions. First, the collected supernatant was anti-histamine derivatized and reacted with histamine-AChE tracer. Then, after washing at least 5 times followed by visualization for 60-90 minutes, absorbance was measured at 414 nm.

[4] = topical 1 μg/10 μL homoisoflavanone or 50 μg/10 μL dexamethasone 1 h before 100 μM TPA, 6 hour after TPA, vs TPA control (FIG. 4a, 4b)

With `COc1ccc(CC2COc3cc(O)cc(O)c3C2=O)cc1O` (centres unmarked) [homoisoflavanone] the “generation of intracellular ROS induced by UV” value [1] was “decreased significantly”, the “hyperplasia in the epidermis (hematoxylin-eosin staining)” value (hairless mouse (SKH-1); 1 μg/10 μL homoisoflavanone or 50 μg/10 μL dexamethasone plus TPA (FIG. 4c)) was “significantly reduced” and the ear thickness (hairless mouse (SKH-1); [4]) was “decrease”. The ear weight (hairless mouse (SKH-1); [4]) was “decrease”, the “migration of 5-LOX toward the nuclear membrane” value (5-LOX) was “inhibited” and the cPLA2 phosphorylation (cPLA2) was “inhibited”. For the same compound, the “release of intracellular substances (degranulation, TEM)” value (HMC-1 cells [2]) was “inhibited” and the “inhibition of release of histamine” value (HMC-1 cells [3]) was 72%.
